Patent US5550121A, “Aminoalkylpyrrolidinylthiocarbapenem derivatives” (priority 1991, dated 1996)
Values after ≈ are worked out from the molar mass of the structure shown. Where two headings read alike, the source gives them in different places. Values belong to the molecule of their own block, whether it stands above or below them.

How the values were obtained:
P. aeruginosa MB5002 = experiment: in vitro antibacterial activity by agar plate dilution method (MIC); type: cell-based; settings: Pseudomonas aeruginosa, read-out: Minimum Inhibitory Concentration (MIC)
Description: (§1) One platinum loopful of each test microorganism incubated overnight in Mueller Hinton broth, was inoculated to Mueller Hinton agar (inoculum size: 10^6 CFU/ml). Such culture media contained antibacterial agents in various concentrations. After incubation at 37° C. for 16 hours, the minimum inhibitory concentrations (MIC: μg/ml) were measured.
(§2) The minimum inhibitory concentrations and the DHP-I susceptibility of the compounds of the present invention were compared with imipenem and the compound of REFERENCE EXAMPLE 13.

P. aeruginosa MB5178 = experiment: as above; type: cell-based; settings: Pseudomonas aeruginosa, MB5178, 16 h, read-out: Minimum Inhibitory Concentration (MIC)
Description: as §1, §2

[1] = Pharmacokinetics in mice after s.c. dosing, bioassay of plasma and urine; settings: mouse, sc, 20 mg/kg; for AUC / Cmax / Tmax / half-life: plasma; for dose excreted at 6 h: urine
Description: Pharmacokinetics in mice: Groups of three 20 g ddY male mice were given a single dose of 20 mg/kg of the compound of EXAMPLE 19 and imipenem by sc route. One group of three mice was placed in a metabolism cage designed to collect the urine free from fecal contamination. At a specified time after dosing, blood and urine samples were collected from a group for bioassay. The plasma was collected from the pooled blood after centrifugation. Microbiological assays: Bioactivity in the specimens was measured was by the standard disk diffusion procedure using Bacillus subtilis ATCC12432 as a test organism.

[2] = system: renal dehydropeptidase I (DHP-I); experiment: DHP-I susceptibility (method by Kropp et al.), ratio to imipenem; type: in vitro ADME; settings: ratio to imipenem (=1.0); the smaller the value, the higher the stability
From the text: Further, the DHP-I susceptibility was quantitatively analyzed by the method by Kropp et al., Antimicrob. Agents Chemother., vol. 22, p. 62-70 (1982), whereby the smaller the numerical value representing the ratio to imipenem (=1.0), the higher the stability.
as §2

[3] = system: various gram positive bacteria and gram negative bacteria; settings: cited from earlier work
[4] = imipenem compared with thienamycin; cited from earlier work
Pseudomonas aeruginosa = settings: superior to thienamycin; cited from earlier work
[5] = system: renal dehydropeptidase I (DHP-I); settings: cited from earlier work
[6] = due to the decomposition products; cited from earlier work
[7] = system: highly methicillin resistant Staphylococcus aureus which is resistant to imipenem and imipenem resistant Pseudomonas aeruginosa; settings: clinical field; cited from earlier work
[8] = in vivo; cited from earlier work
[9] = P. aeruginosa MB5002, Mueller Hinton agar, inoculum 10^6 CFU/ml, 37° C., 16 hours
[10] = P. aeruginosa MB5178, Mueller Hinton agar, inoculum 10^6 CFU/ml, 37° C., 16 hours

Structure (SMILES): CC(CN)C[C@@H]1C[C@H](SC2=C(C(=O)O)N3C(=O)[C@H]([C@@H](C)O)[C@H]3[C@H]2C)CN1 (single isomer, unassigned) [Example 7]
MIC (P. aeruginosa MB5002; [9]): 0.78 µg/mL (≈ 2.03 µM)

Structure (SMILES): C[C@@H](O)[C@H]1C(=O)N2C(C(=O)O)=C(S[C@@H]3CN[C@H](C(O)CCN)C3)[C@H](C)[C@H]12 (single isomer, unassigned) [Example 9]
MIC (P. aeruginosa MB5002; [9]): 0.78 µg/mL (≈ 2.02 µM) | MIC (P. aeruginosa MB5178; [10]): 1.56 µg/mL (≈ 4.05 µM)

Structure (SMILES): C[C@@H](O)[C@H]1C(=O)N2C(C(=O)O)=C(SCCN=CN)C[C@H]12 [Imipenem, (5R,6S,8R)-3-[[2-(formimidoylamino)ethyl]thio]-6-(1-hydroxyethyl)-7-oxo-1-azabicyclo[3.2.0]hept-2-en-2-carboxylic acid monohydrate]
MIC (P. aeruginosa MB5002; MB5002, 16 h): 1.56 µg/mL | MIC (P. aeruginosa MB5178): 25 µg/mL | DHP-I susceptibility [2]: 1.0 | AUC [1]: 9500 ng·h/mL | Cmax [1]: 21500 ng/mL | Tmax [1]: 10.8 min | half-life [1]: 7.2 min | dose excreted at 6 h [1]: 21.5% | antibacterial activities compared with thienamycin ([3]; various types of bacteria): equal or higher level than thienamycin | stability in the solid form or in an aqueous solution [4]: remarkably improved over thienamycin | antibacterial activities compared with thienamycin (Pseudomonas aeruginosa): 2 to 4 times | decomposition by DHP-I [5]: likely to be decomposed by DHP-I in the human kidney | toxicity against the kidney [6]: presents toxicity against the kidney due to the decomposition products | treating effects against resistant bacteria [7]: does not show adequate treating effects

Structure (SMILES): C[C@@H](O)[C@H]1C(=O)N2C(C(=O)O)=C(SCCN)C[C@H]12 [thienamycin]
antibacterial activities ([3]; statement in words, prior art): strong antibacterial activities over a wide range against gram positive bacteria and gram negative bacteria | decomposition by DHP-I [5]: likely to be decomposed | recovery rate in the urine [8]: low

More lines, now with the values ahead:

MIC (P. aeruginosa MB5002; [9]): 1.56 µg/mL (≈ 4.2 µM) | MIC (P. aeruginosa MB5178; [10]): 3.13 µg/mL (≈ 8.43 µM)
Structure (SMILES): C[C@@H](O)[C@H]1C(=O)N2C(C(=O)O)=C(S[C@@H]3CN[C@H](C(O)CN)C3)[C@H](C)[C@H]12 (single isomer, unassigned) [Example 13]

AUC [1]: 13800 ng·h/mL | Cmax [1]: 29000 ng/mL | Tmax [1]: 10.8 min | half-life [1]: 7.8 min | dose excreted at 6 h [1]: 62.5%
Structure (SMILES): CNCC[C@@H](O)[C@@H]1C[C@H](SC2=C(C(=O)O)N3C(=O)[C@H]([C@@H](C)O)[C@H]3[C@H]2C)CN1 [Example 19]

MIC (P. aeruginosa MB5002; [9]): 6.25 µg/mL (≈ 16.3 µM) | MIC (P. aeruginosa MB5178; [10]): 12.5 µg/mL (≈ 32.6 µM) | DHP-I susceptibility [2]: 0.7
Structure (SMILES): CC(=O)NC[C@@H]1C[C@H](SC2=C(C(=O)O)N3C(=O)[C@H]([C@@H](C)O)[C@H]3[C@H]2C)CN1 [compound 13, (1R,5S,6S)-2-[(2S,4S)-2-(Acetylaminomethyl)pyrrolidin-4-ylthio]-6-[(1R)-1-hydroxyethyl]-1-methyl-1-carbapen-2-em-3-carboxylic Acid]
